Laboratory results published in the NIST ThermoML archive (doi:10.1016/j.fluid.2009.11.030).
± gives the expanded uncertainty stated by the source.

Assay: excess molar enthalpy (molar enthalpy of mixing); xn = mol fraction of the nth substance listed
Conditions: 101.3 kPa, Liquid, Isothermal microcalorimeter

CCOC(=O)CC(=O)OCC [diethyl 1,3-propanedioate] + CCCCCO
excess molar enthalpy [kcal/mol]
Conditions | 288.15 K | 298.15 K | 313.15 K | 328.15 K | 338.15 K | 348.15 K
x1 = 0.0494 | – | 0.146 ± 0.00263 | – | – | – | –
x1 = 0.0583 | 0.153 ± 0.00239 | – | 0.179 ± 0.00311 | 0.171 ± 0.00311 | 0.185 ± 0.00311 | 0.195 ± 0.00311
x1 = 0.1007 | 0.235 ± 0.00263 | 0.258 ± 0.00287 | 0.282 ± 0.00335 | 0.292 ± 0.00335 | 0.294 ± 0.00335 | 0.301 ± 0.00335
x1 = 0.1478 | 0.31 ± 0.00311 | 0.338 ± 0.00335 | 0.387 ± 0.00359 | 0.391 ± 0.00382 | 0.3934 ± 0.00382 | 0.3987 ± 0.00382
x1 = 0.2 | 0.3731 ± 0.00335 | 0.4132 ± 0.00359 | 0.4584 ± 0.00406 | 0.4859 ± 0.0043 | 0.4897 ± 0.0043 | 0.49 ± 0.0043
x1 = 0.2474 | 0.4204 ± 0.00359 | 0.4646 ± 0.00406 | 0.5196 ± 0.0043 | 0.5471 ± 0.00454 | 0.5504 ± 0.00454 | 0.5566 ± 0.00454
x1 = 0.3001 | 0.4622 ± 0.00406 | 0.5153 ± 0.0043 | 0.5793 ± 0.00478 | 0.6047 ± 0.00502 | 0.6154 ± 0.00502 | 0.6068 ± 0.00502
x1 = 0.3474 | 0.4885 ± 0.00406 | 0.5428 ± 0.00454 | 0.6142 ± 0.00502 | 0.6424 ± 0.00526 | 0.6482 ± 0.00526 | 0.6441 ± 0.00526
x1 = 0.4003 | 0.512 ± 0.0043 | 0.5712 ± 0.00478 | 0.6389 ± 0.00526 | 0.6666 ± 0.00526 | 0.6707 ± 0.0055 | 0.6764 ± 0.0055
x1 = 0.4472 | 0.5203 ± 0.0043 | 0.5844 ± 0.00478 | 0.6465 ± 0.00526 | 0.6793 ± 0.0055 | 0.68 ± 0.0055 | 0.6816 ± 0.0055
x1 = 0.4997 | 0.5284 ± 0.00454 | 0.5896 ± 0.00478 | 0.6467 ± 0.00526 | 0.6819 ± 0.0055 | 0.6826 ± 0.0055 | 0.6781 ± 0.0055
x1 = 0.55 | 0.528 ± 0.00454 | 0.5815 ± 0.00478 | 0.6405 ± 0.00526 | 0.669 ± 0.0055 | 0.6692 ± 0.0055 | 0.6656 ± 0.00526
x1 = 0.5975 | 0.516 ± 0.0043 | 0.5674 ± 0.00478 | 0.6209 ± 0.00502 | 0.6456 ± 0.00526 | 0.6439 ± 0.00526 | 0.6405 ± 0.00526
x1 = 0.6466 | 0.4945 ± 0.00406 | 0.543 ± 0.00454 | 0.5906 ± 0.00478 | 0.6121 ± 0.00502 | 0.5973 ± 0.00478 | 0.5992 ± 0.00502
x1 = 0.6973 | 0.4653 ± 0.00406 | 0.5067 ± 0.0043 | 0.5447 ± 0.00454 | 0.5609 ± 0.00478 | 0.5569 ± 0.00454 | 0.5497 ± 0.00454
x1 = 0.7497 | 0.4199 ± 0.00359 | 0.4572 ± 0.00382 | 0.4857 ± 0.00406 | 0.4974 ± 0.0043 | 0.4919 ± 0.0043 | 0.4826 ± 0.00406
x1 = 0.7988 | 0.3709 ± 0.00335 | 0.3982 ± 0.00359 | 0.4185 ± 0.00382 | 0.4235 ± 0.00382 | 0.4218 ± 0.00382 | 0.407 ± 0.00382
x1 = 0.8494 | 0.3 ± 0.00311 | 0.3198 ± 0.00311 | 0.332 ± 0.00335 | 0.334 ± 0.00335 | 0.331 ± 0.00335 | 0.315 ± 0.00335
x1 = 0.9017 | 0.212 ± 0.00263 | 0.223 ± 0.00287 | 0.226 ± 0.00287 | 0.232 ± 0.00287 | 0.224 ± 0.00287 | 0.217 ± 0.00287
x1 = 0.9501 | 0.11 ± 0.00239 | 0.12 ± 0.00239 | 0.121 ± 0.00239 | 0.121 ± 0.00263 | 0.114 ± 0.00239 | 0.109 ± 0.00239
